Measurements as given in patent publication US20250388572A1, “USE OF HPK1 INHIBITOR IN PREVENTION AND/OR TREATMENT OF HUMAN PATHOGEN INFECTION” (priority 2022, published 2025).

Legend:
[1] = in vivo; conditions: male, Sprague Dawley, rat
Method: Six male Sprague Dawley rats were administrated a single dose via intravenous injection (iv, n=3) and oral administration (po, n=3), respectively. Intravenous injection was performed by formulating the compounds into 0.25 mg/ml or 0.5 mg/mL solutions using 10% DMSO/30% PEG400/60% water and administering it at a volume of 2 mL/kg. Oral administration was performed by formulating the compounds into 0.6 mg/ml or 2.0 mg/mL homogeneous suspensions using 0.5% methylcellulose and administering it at a volume of 5 mL/kg.
The pharmacokinetic parameters of the compounds were calculated using the WinNolin non-compartmental model.

[2] = test system: HSV virus; assay: Pharmacodynamic evaluation for viral keratitis (HSV) in mice; assay type: in vivo, C57 mice; conditions: for corneal perforation: right eye, 2 weeks, control: 2 eyes perforated from day 5; for clinical score at the highest peak of the disease (day 5): control group above 6
Method: Fifteen C57 mice (body weight: 22 g to 25 g), aged 8 weeks, were subjected to viral keratitis modeling in their right eyes. During the modeling process, a sterile 25G needle was used to make […]parallel scratches on the cornea of the right eye of all the animals. The scratch depth should be in the superficial zone and cannot penetrate the stroma layer. The scratches between each eyeball should be moderately uniform in depth and evenly distributed in density. Then, 4 μl of well-mixed HSV virus solution was dripped using a fiber syringe (titer: 2.0*10^6 PFU/ml) to complete the modeling. The day of modeling was set as DO. One day after modeling, the animals' right eyes were scored for viral keratitis, and 9 mice with uniform modeling were selected for the experiment. These 9 mice were randomly divided into 3 groups: control group, 1% A2 group and 0.2% A2 group, with 3 mice per group. According to the grouping, each animal's right eye surface was treated with the corresponding drugs, vehicle or 3024 eye drops with different concentrations, once every other day. On the day of administration, each eye was given 3 drops of 10 μl each time for 2 consecutive weeks. The degree of keratitis lesions was scored and analyzed on days 1, 3, 5, 7, 9, 11 and 14 after modeling.
Grading (i.e., scoring) was performed based on the three criteria of corneal ulcer area, depth and shape, and the total score was recorded by adding.
(1) Corneal ulcer area: Score 1=1% to 25%; Score 2=26% to 50%; Score 3=51% to 75%; and Score 4=76% to 100%.
(2) Lesion depth: Score 1=mild corneal opacity with clear iris texture; Score 2=off-white superficial corneal opacity with visible iris texture; Score 3=off-white deep corneal opacity with unclear iris texture; and Score 4=off-white full-layer dense corneal opacity with unclear anterior chamber.
(3) Corneal ulcer shape: Score 1=mild surface irregularity; Score 2=rough corneal surface with mild swelling; Score 3=severe edema with swelling descemet's membrane; and Score 4=corneal perforation or severe swelling descemet's membrane.
(4) If there is hypopyon and/or hyphema, the score is increased by 1.

[3] = test system: MHV-A59 virus; assay: Pharmacodynamic evaluation for MHV, low-dose virus group; assay type: in vivo, C57BL/6 mice; conditions: 4×10^5 PFU, day 8, control 19.19%
Method: The effect of A2 on the prevention and treatment of MHV was investigated.
Low-dose virus group: 21 male SPF grade C57BL/6 mice, aged 4 weeks, were divided into three groups: control group, precaution group and therapy group. These mice were anesthetized and then injected intrahepatically (i.h.) with 100 μL of DMEM containing 4×10^5 PFU MHV-A59 virus. The precaution group was given the first dose of A2 at 10 mg/kg 24 hours before the challenge, and the therapy group was given the first dose of A2 at 10 mg/kg 24 hours after the challenge, followed by daily continuous administration (both the precaution group and the therapy group were given a daily dose of 10 mg/kg). The infected mice were monitored daily. Blood samples were collected from the retro-orbital venous plexus on day 0 and day 4 after infection, and serum was extracted to detect alanine aminotransferase (ALT)/alanine aminotransferase (GPT) levels. On day 8 after infection, all groups of mice were sacrificed. Liver tissues were taken for virus titer determination and histological analysis, and spleen tissues were taken for virus specific T proliferation assay.

[4] = mouse, microsomes, 1 h, 10 µM
Method: The procedure for identifying microsomal metabolites is as follows:
The compounds (test compounds and their numbers are shown below, among which compounds A1 and B1 are prepared by referring to the relevant method disclosed in CN110396087A) were weighed and dissolved into dimethyl sulfoxide to prepare a 20 mM solution. The compound stock solution was diluted with 50% acetonitrile in water (v/v) to a concentration of 1.0 mM as a working solution. Liver microsomes (20 mg/mL) were diluted to 1.27 mg/mL with 50 mM dipotassium hydrogen phosphate buffer as a liver microsome working solution. Reduced coenzyme was weighed and dissolved in 3307 μL of phosphate buffer (50 mM) to 5.0 mM as a reduced coenzyme working solution. For T=60 minutes samples, 4 μL of test working solution (1.0 mM) was added, followed by 316 μL of liver microsome working solution (1.27 mg/mL), and finally, 80 μL of reduced coenzyme working solution was added to start the reaction. For T=0 minutes samples, 316 μL of liver microsome working solution (1.27 mg/mL) was added and then 80 μL of reduced coenzyme working solution was added to start the reaction, without test solution incubation. After incubation at 37° C. for 60 minutes, 1200 μL of stop solution was added to stop the enzyme reaction. For T=0 minute samples, 4 μL of test working solution (1.0 mM) was added. The sample plate was placed on a vortexer and vortexed at 600 rpm for 5 minutes. Then, the sample plate was centrifuged at 4000 rpm for 10 minutes. The supernatant was removed, mixed, and dried at room temperature with nitrogen. The residue dried with nitrogen was redissolved in 300 μL of 10% acetonitrile (0.1% FA) solvent and then centrifuged at 4000 rpm for 15 minutes. The supernatant was transferred to a detection plate for mass spectrometry. Mass spectrometry was performed using LC/Q-Exactive plus.
7-Ethoxycoumarin (10 μM) was selected as a positive control compound and operated in parallel with the compounds.

[5] = in vivo; conditions: male, cynomolgus monkey
Method: Three male Cynomolgus macaques were administrated a single dose via intravenous injection (iv, 1 mg/kg, n=3), followed by oral administration (po, 10 mg/kg, n=3) after washing out for one week. Intravenous injection was performed by formulating the compounds into 1.0 mg/mL solutions using water or 10% DMSO/30% PEG400/water and administering it at a volume of 1 mL/kg. Oral administration was performed by formulating the compounds into 2.0 mg/mL solutions or suspensions using water or 0.5% methylcellulose/1.7 meq 1N hydrochloric acid and administering it at a volume of 5 mL/kg.
The pharmacokinetic parameters of the compounds were calculated using the non-compartmental model.

With [2H]C([2H])([2H])N1CCC(n2cc(-c3cnc(N)c(OCc4cccc(C#CC(C)(C)O)c4)c3)cn2)CC1 [Compound A2, 4-(3-(((2-amino-5-(1-(1-trideuteriomethylpiperidin-4-yl)-1H-pyrazol-4-yl)pyridin-3-yl)oxy)methyl)phenyl)-2-methylbut-3-yn-2-ol] the AUC(0-t) ([1]; iv, 1 mg/kg) was 247 ng·h/mL, the clearance ([1]; iv, 1 mg/kg) was 71 mL/min/kg and the AUC(0-t) ([1]; po, 10 mg/kg) was 572 ng·h/mL. For the same compound, the bioavailability ([1]; po, 10 mg/kg) was 23.2%, the “keratitis lesion scores vs model control group” value ([2]; 0.2% eye drops for 2 weeks, P<0.01) was “statistically different” and the corneal perforation ([2]; 0.2% eye drops) was “no corneal perforation”. For the same compound, the “clinical score at the highest peak of the disease (day 5)” value ([2]; 0.2% eye drops) was “less than 6”, the corneal neovascularization scoring ([2]; 1% eye drops (suspension), control group above 1) was “below 0.5” and the “keratitis lesion scores vs model control group” value ([2]; 1.0% eye drops for 2 weeks, P<0.05) was “statistically different”. For the same compound, the corneal perforation ([2]; 1% eye drops) was “no corneal perforation”, the “clinical score at the highest peak of the disease (day 5)” value ([2]; 1% eye drops) was “less than 6” and the “average proliferation rate of spleen cells (virus specific T cell proliferation)” value ([3]; precaution group, 10 mg/kg daily from 24 hours before challenge) was 28.18%. For the same compound, the “average proliferation rate of spleen cells (virus specific T cell proliferation)” value ([3]; therapy group, 10 mg/kg daily from 24 hours after challenge) was 52.95%, the “remaining percentage of the parent cores after 60 min” value [4] was 55.0% and the bioavailability [5] was 18.8%. For the same compound, the AUC(0-t) ([5]; iv, 1 mg/kg) was 949 ng·h/mL, the clearance ([5]; iv, 1 mg/kg) was 16.7 mL/min/kg and the AUC(0-t) ([5]; po, 10 mg/kg) was 1760 ng·h/mL.
